molecular target: T1, Phospholipase A2, membrane associated (Homo sapiens, UniProt P14555); test: Compound was tested for in vitro activity against S-phospholipase A2 (s-PLA2) isolated from human platelets
T1 sequence (P14555 whole entry): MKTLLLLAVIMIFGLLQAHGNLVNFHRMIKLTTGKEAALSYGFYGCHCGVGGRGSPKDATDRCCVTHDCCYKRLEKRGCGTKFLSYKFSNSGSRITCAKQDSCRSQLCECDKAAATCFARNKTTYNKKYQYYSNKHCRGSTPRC

Question: `O=C(O)C[C@@H](CSc1ccc(Cc2ccccc2)cc1)NC(=O)CCCCCCc1ccccc1` was tested. Which IC50 did it give?
Answer: 65 nM

Question: With `CCCCCC/C=C/CC(=O)N[C@H](CSc1ccc(Cc2ccccc2)cc1)CC(=O)O` as the molecule, how does the IC50 read?
Answer: 3800 nM

Question: Which IC50 does the source give for `CCCCCC/C=C/CC(=O)N[C@H](CCC(=O)O)CSc1ccc2ccccc2c1` here?
Answer: 12000 nM

Question: For `CCCCCC/C=C/CC(=O)N[C@@H](CCC(=O)O)CSc1ccc2ccccc2c1`, which IC50 is on record?
Answer: 1850 nM

Reference: ChEMBL document CHEMBL1127334, “Discovery of new non-phospholipid inhibitors of the secretory phospholipases A2” (J Med Chem, 1994)
